Literature values in patent US7745108B2, “Method for identifying terpene synthase” (The Regents of the University of California, priority 2003, dated 2010).

Key:
monoterpene synthases = settings: all twelve monoterpene synthases tested
taxadiene synthase = molecular target: T1, taxadiene synthase (Taxus brevifolia, UniProt Q41594)
T1 sequence (Q41594 61-862 limits assumed): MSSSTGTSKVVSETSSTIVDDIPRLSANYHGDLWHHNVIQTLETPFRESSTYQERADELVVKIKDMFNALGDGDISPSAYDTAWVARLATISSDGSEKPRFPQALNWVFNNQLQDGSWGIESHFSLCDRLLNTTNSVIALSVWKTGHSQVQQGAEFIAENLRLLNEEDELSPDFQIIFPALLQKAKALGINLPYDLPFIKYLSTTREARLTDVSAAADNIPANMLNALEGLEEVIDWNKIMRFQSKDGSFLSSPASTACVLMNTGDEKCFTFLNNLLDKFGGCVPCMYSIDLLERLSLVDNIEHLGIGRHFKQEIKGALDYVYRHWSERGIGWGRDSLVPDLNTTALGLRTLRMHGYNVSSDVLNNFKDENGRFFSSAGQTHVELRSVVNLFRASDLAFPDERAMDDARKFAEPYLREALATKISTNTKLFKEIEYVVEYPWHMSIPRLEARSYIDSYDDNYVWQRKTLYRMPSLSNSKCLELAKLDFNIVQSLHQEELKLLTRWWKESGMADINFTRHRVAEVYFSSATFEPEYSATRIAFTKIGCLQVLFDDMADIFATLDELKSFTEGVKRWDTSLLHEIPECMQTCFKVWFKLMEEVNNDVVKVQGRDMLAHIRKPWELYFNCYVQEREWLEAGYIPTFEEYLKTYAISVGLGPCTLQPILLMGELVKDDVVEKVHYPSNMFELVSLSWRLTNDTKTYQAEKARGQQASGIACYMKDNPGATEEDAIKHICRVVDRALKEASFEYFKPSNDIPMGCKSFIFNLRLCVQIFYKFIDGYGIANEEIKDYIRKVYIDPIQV

| Substance | sensitivity of monoterpene synthases to the inhibitor (monoterpene synthases) | covalent modification and inhibition of taxadiene synthase (taxadiene synthase) |
| --- | --- | --- |
| cyclopropylidene geranyl diphosphate [CP-GPP] | sensitive | – |
| cyclopropylidene geranylgeranyl diphosphate [CP-GGPP] | – | unsuccessful in covalently modifying and inhibiting |
